{
  "source": "patent US20110033938A1",
  "about": "“SYSTEM FOR INDUCIBLE GENE EXPRESSION IN CHLAMYDOMONAS” (priority 2008, published 2011)",
  "key": {"[1]": {"test_system": "Chlamydomonas growth", "conditions": "for toxicity effects on Chlamydomonas growth: TAP medium; for effect on Chlamydomonas growth rate: all three growth media", "from_the_text": "(§1) In order to measure quantitatively the transcription of a gene sequence placed under the control of the Cyc6 promoter, we cloned downstream of this promoter the reporter gene cRLuc (Fuhrmann et al., 2004). This gene was also cloned downstream of the strong constitutive PsaD promoter (Fischer e Rochaix, 2001) obtaining the cassettes Cyc6:cRLuc and PsaD:cRLuc (FIG. 1A). Chlamydomonas cells were transformed with these cassettes according to Kindle (1990) and the transformed cells were inoculated in TAP growth medium (Harris, 1989) at a cell density of 10^6 cells/ml. 30 hours later, Ni2+ was added at a final concentration of 25, 50 and 75 μM and Luc activity was measured in the cellular lysates at different times after induction using the Luciferase Assay System (Promega, cat. E2820).\n(§2) Ni2+ was added to cells transformed with the construct Cyc6:cRLuc (indicated as “transformed cells” from now on) and grown in TAP, TAP/ENEA1 and TAP/ENEA2 growth media. […] An ideal inducible gene system should be promptly reversible after the addition of an antagonist of the inducer, effective at micromolar concentrations.\n(§3) Since the Cyc6 promoter is switched off by Cu2+, the use of chelators specific for that ion can be an alternative method for the reversible induction of this promoter. As an example, FIGS. 4A and 4B show, respectively, the Luc activity and the growth curves of cells transformed with the construct Cyc6:cRLuc grown in TAP/ENEA2 growth medium and induced with the chelators listed in Table 3. […] In the present invention, we propone an alternative method to the Ni2+/EDTA system: activation by Cu chelators, followed by reversion by Cu2+ addition. […] In these experiments, the Cyc6 promoter was induced by 2 μM TETA and repressed by 1 μM Cu2+ (FIG. 4D) and by 5 μM TETA and by 2 μM Cu2+ (FIG. 4E). At 88 hours from TETA addition, the culture in stationary phase was diluted 1:20 and after 30 hours (0 hours of the second cycle) TETA was added at concentrations of 2 (FIG. 4D) e 5 μM (FIG. 4E). At 16 hours Cu2+ was added at the concentration of 1 (FIG. 4D) and 2 μM (FIG. 4E). […] In the system described here, activation and repression of the promoter are obtained respectively by addition of an inducer and its antagonist. In none of the chemically regulated gene expression systems described to date, such an activation followed by repression has been described.\nA: Schematic maps of the PsaD:cRLuc and Cyc6:cRLuc constructs B: Schematic maps of the Cyc6:Rb-int-1, Cyc6:Rb-int-2, Cyc6:Rb:int-3 constructs C: Growth curves in TAP medium after addition of different Ni concentrations D: Luc activity driven by PsaD and Cyc6 in TAP medium after addition of different Ni concentrations\nA, C, E: Luc activity of Chlamydomonas cells transformed with the Cyc6:cRLuc construct in TAP, TAP/ENEA1 and TAP/ENEA2 growth media in the presence of 25 μM (A), 50 μM (C), 75 μM (E) Ni2+."}, "[2]": {"test_system": "Cyc6 promoter", "format": "cell-based, Chlamydomonas reinhardtii", "conditions": "for Luc activity induction relative to PsaD: 75 μM Ni2+", "from_the_text": "as §1, §2, §3\nA, C, E: Luc activity of Chlamydomonas cells transformed with the Cyc6:cRLuc construct in TAP, TAP/ENEA1 and TAP/ENEA2 growth media in the presence of 25 μM (A), 50 μM (C), 75 μM (E) Ni2+. B, D, F: Growth curves of the transformed cells grown in TAP, TAP/ENEA1 and TAP/ENEA2 growth media in the presence of different Ni2+ concentrations, 25 μM (B), 50 μM (D), 75 μM (F) Ni2+. For the composition of the different media, see Table 2.\n(§4) A: Luc activity of cells transformed with Cyc6:cRLuc construct induced by the different chelators listed in Table 3 in TAP/ENEA2 growth medium. B: Growth curves in TAP/ENEA2 growth medium in the presence of different Cu-chelators."}, "[3]": {"test_system": "Cyc6 promoter", "test": "Reversibility of Cyc6 promoter induction (Luc activity) after addition of an antagonist (EDTA or Cu2+)", "format": "cell-based, Chlamydomonas reinhardtii", "from_the_text": "as §3, §4"}},
  "note": "Read-outs that look alike come from different tables or passages of the source.",
  "data": [
    {"compound": "c1cnc2c(c1)ccc1cccnc12", "note": "[1.10 phenanthroline, 1,10-phenanthroline]", "values": [
      {"measurement": "toxicity on Chlamydomonas growth", "setting": "[1]; chelator 10 μM, TAP/ENEA2", "value": "toxic"}
    ]},
    {"compound": "Cc1cc(-c2ccc(S(=O)(=O)O)cc2)c2ccc3c(-c4ccc(S(=O)(=O)O)cc4)cc(C)nc3c2n1", "note": "[BCS, bathocuproinedisulfonic acid]", "values": [
      {"measurement": "activation of the Cyc6 promoter (Luc activity)", "setting": "[2]; chelator 10 μM, TAP/ENEA2", "value": "able to activate the Cyc6 promoter"}
    ]},
    {"compound": "[Cu+2]", "note": "[Cu2+]", "values": [
      {"measurement": "effect on Luc activity after TETA induction", "setting": "[3]; 2 μM Cu2+ added 16 hours after chelator addition, TAP/ENEA2", "value": "represses Luc activity"},
      {"measurement": "reversion of TETA induction by Cu2+", "setting": "[3]; micromolar Cu2+, TAP/ENEA2, FIG. 4C", "value": "can be reverted"}
    ]},
    {"compound": "O=C(O)CN(CCN(CC(=O)O)CC(=O)O)CC(=O)O", "note": "[EDTA]", "values": [
      {"measurement": "reversion of Cyc6 promoter activity (Luc) by EDTA", "setting": "[3]; EDTA 25, 50 and 150 μM added 16 hours after 25 or 50 μM Ni2+, TAP/ENEA2 and TAP", "value": "only partially reverted"}
    ]},
    {"compound": "Cn1ccnc1CNC1CC(NCc2nccn2C)CC(NCc2nccn2C)C1", "note": "(stereo not drawn) [IM, 1,3,5-cis,cis,-triaminocyclohexane-N,N′,N″-tris-(2-methyl-(N-methylimidazole))]", "values": [
      {"measurement": "activation of the Cyc6 promoter (Luc activity)", "setting": "[2]; chelator 10 μM, TAP/ENEA2", "value": "able to activate the Cyc6 promoter"}
    ]},
    {"compound": "[Ni+2]", "note": "[Ni2+]", "values": [
      {"measurement": "toxicity effects on Chlamydomonas growth", "setting": "[1]; 25 μM Ni2+", "value": "does not have toxic effects"},
      {"measurement": "toxic effects on growth", "setting": "[1]; 25 μM Ni2+, all three growth media (TAP, TAP/ENEA1, TAP/ENEA2)", "value": "only minor toxic effects"},
      {"measurement": "toxicity effects on Chlamydomonas growth", "setting": "[1]; 50 μM Ni2+", "value": "toxicity effects"},
      {"measurement": "effect on Chlamydomonas growth rate", "setting": "[1]; 50 μM Ni2+", "value": "evident slowing down of Chlamydomonas growth rate"},
      {"measurement": "toxicity effects on Chlamydomonas growth", "setting": "[1]; 75 μM Ni2+", "value": "toxicity effects"},
      {"measurement": "effect on Chlamydomonas growth rate", "setting": "[1]; 75 μM Ni2+", "value": "evident slowing down of Chlamydomonas growth rate"},
      {"measurement": "Cyc6 promoter activity in TAP, TAP/ENEA1 and TAP/ENEA2", "setting": "[2]; 25 μM Ni2+", "value": "active only in TAP/ENEA2 growth medium"},
      {"measurement": "activation of the Cyc6 promoter", "setting": "[2]; 25 μM Ni2+, TAP medium", "value": "not sufficient to activate the Cyc6 promoter"},
      {"measurement": "Cyc6 promoter activity relative to PsaD promoter", "setting": "[2]; 25 μM Ni2+, TAP/ENEA2", "value": "same level of activity as the strong PsaD promoter"},
      {"measurement": "increase of Cyc6 promoter activity in TAP/ENEA2 with respect to TAP medium", "setting": "[2]; 50 μM Ni2+", "value": 25, "unit": "times"},
      {"measurement": "Cyc6 promoter activity relative to PsaD", "setting": "[2]; 50 μM Ni2+, TAP", "value": "1/10"},
      {"measurement": "Cyc6 promoter activity relative to PsaD", "setting": "[2]; 50 μM Ni2+, TAP/ENEA1", "value": "½"},
      {"measurement": "Cyc6 promoter activity relative to PsaD", "setting": "[2]; 50 μM Ni2+, TAP/ENEA2", "value": 2.5, "unit": "fold more than PsaD"},
      {"measurement": "Luc activity induction relative to PsaD", "setting": "[2]; TAP/ENEA1", "value": "about two-fold"},
      {"measurement": "Luc activity induction relative to PsaD", "setting": "[2]; TAP/ENEA2", "value": "about two-fold"},
      {"measurement": "Luc activity after induction compared to PsaD promoter", "setting": "[2]; 25, 50 and 75 μM Ni2+, TAP medium", "value": "low compared to the Luc activity driven by the PsaD promoter"}
    ]},
    {"compound": "NCCNCCNCCN", "note": "[TETA, triethylentetramine]", "values": [
      {"measurement": "Cyc6 promoter activation in TAP/ENEA2 versus TAP", "setting": "[2]", "value": "only in TAP/ENEA2 growth medium"},
      {"measurement": "activation of the Cyc6 promoter (Luc activity)", "setting": "[2]", "value": "able to activate the Cyc6 promoter"},
      {"measurement": "time course of Luc activity after chelator addition", "setting": "[2]", "value": "increases steadily until 48 hours"},
      {"measurement": "induction in a second growth cycle", "setting": "[3]", "value": "a second induction is obtained"}
    ]}
  ]
}
